As usually defined, the IC50 is the concentration that gives 50% inhibition. A higher IC50 goes with weaker potency.

The source of these data is US12226501B2, “Composition with stabilized taste and odor” (Symrise AG, priority 2015, dated 2025).

The nature of data set [1]: ABTS-assay, anti-oxidative capacity (inhibition of radical formation). Format: biochemical. As to conditions: for IC50: ABTS radical cation, absorption at 734 nm, mean value from at least 2 independent tests. How it is done:
6-Paradol is a known antioxidant. With the help of the ABTS-assay the anti-oxidative capacity of [6]-paradol and alpha-tocopherol was compared.
2,2′-azino bis-(3-ethylbenzothiazoline 6-sulfonic acid) (ABTS) was transformed by potassium persulfate into the blue-green radical cation ABTS•^+. Through the addition of [6]-paradol and alpha-tocopherol the radical cations were reduced and discoloration was observed, which was determined photometrically by Absorption at 734 nm. The inhibition of the radical formation of the test substance is calculated by the following formula:
[formula] Wherein the abbreviations have the following meanings: • Atest substance: Absorption of the wells with test substance including [6]-paradol and alpha-tocopherol • Acontrol: Absorption of the wells without test substance
From the inhibition of the radical formation [%] in a series of dilutions of tested samples the IC50 was calculated. This is the concentration at which the radical formation is inhibited by 50%.

Data set [2] can be described thus: Stabilization of avocado oil, absorbance at 232 nm (conjugated dienes). It counts as physicochemical. As to conditions: compared to avocado oil without additive or to alpha-tocopherol 0.5%. How it is done: To evaluate the odor protecting effect of [6]-paradol on oils, oil samples comprising avocado oil without (A) and with different additives (B to D) were prepared as given in Table 5.
The oil samples were divided respectively into 3 portions, wherein one part was exposed to artificial UV light in a suntest device (Original Hanau-Xenon lamp) for 8 hours 550-600 W/m^2 (300 to 800 nm). The other two portions were stored for 1 month either at room temperature exposed to normal daylight (RTL) or at 50° C. in a heating cabinet (50° C.), respectively. After the treatments, the absorbance at 232 nm was determined as this positive correlates with the state of oxidation by detecting conjugated dienes as specific oxidized compounds.

The nature of data set [3]: Stabilization of argan oil, absorbance at 232 nm (conjugated dienes). It counts as physicochemical. The following applies: compared to argan oil without additive or to alpha-tocopherol 0.5%. How it is done:
To evaluate the protecting effect of oils from oxidation, oil samples comprising argan oil without (A) and with different additives (B to D) were prepared as given in Table 8.
The oils were divided into 3 portions each. One portion was exposed to artificial UV light in a suntest device (Original Hanau-Xenon lamp) for 8 hours 550-600 W/m^2 (300 to 800 nm). The other two portions were stored for 1 month either at room temperature exposed to normal daylight (RTL) or at 50° C. in a heating cabinet (50° C.), respectively. After the treatments, the absorbance at 232 nm was determined as this correlates with the state of oxidation by detecting conjugated dienes as specific oxidized compounds.

A further data set has as its system oxidized DNA bases. As to conditions: in vitro; cited from earlier work.
Another data set deals with DMBA-treated hamsters. The following applies: oral 30 mg/kg b.w. on alternate days for 14 weeks; cited from earlier work.
Data set [4] is described as follows: Color measurement (CIELAB L*a*b*, ΔE) of anti-aging cream containing a retinoid after suntest. It counts as physicochemical. How it is done: Retinoids such as e.g. retinol are potent anti-aging cosmetic agents known to be unstable and prone to discoloration upon light exposure and longer storage at higher temperatures (e.g. >30° C.).
The phase A was heated to 80° C. For phase B, Carbopol Ultrez 21 was sprinkled at the surface of the water for swelling. Afterwards, glycerin was added and phase B was heated up to 80°. Then phase B was added to phase A under strong agitation with an Ultra Turrax. The formula was cooled down and phase C was added at around 40° C. Afterwards, the formula was neutralized with sodium hydroxide to get pH 5-5.5. When the formula was at room temperature, phase E was added under agitation. Final pH was checked to be 5-5.5.
The cream samples were exposed to artificial UV light in a suntest device (Original Hanau-Xenon lamp) for 8 hours 550-600 W/m^2 (300 to 800 nm). Afterwards, they were evaluated for discoloration by measurement of L*a*b* values and calculation of the color difference ΔE as described in example 8.

`CCCCCCCC(=O)CCc1ccc(O)c(OC)c1` [[6]-paradol, 1-(4-hydroxy-3-methoxyphenyl)-decan-3-one] gave an IC50 in data set [1] of 17.4 µM. The “radical scavenging activity better than alpha-tocopherol” value in data set [1] (comparison of IC50 values) is reported as 1.5 fold. Moreover, in data set [2], the “protective effect on avocado oil (in words)” value is reported as “lower increase of absorbance at 232 nm”. The “protective effect on argan oil (in words)” value in data set [3] is “lower increase of absorbance at 232 nm”. In addition, in the data set with oxidized DNA bases, the “H2O2- and UV-induced formation of oxidized DNA bases” value is recorded as “attenuated”. Further, in the data set with DMBA-treated hamsters, the status of antioxidants result is “significantly improved the status of antioxidants”.

In data set [1], `Cc1c(C)c2c(c(C)c1O)CC[C@@](C)(CCC[C@H](C)CCC[C@H](C)CCCC(C)C)O2` [alpha-tocopherol, reference compound] came in with an IC50 of 26.8 µM. For the same compound, the “color protection of retinol (in words)” value in data set [4] is reported as “unsuitable for protecting retinol from discoloration”.
